# Tests used:
# [1] = target: histone deacetylase (HeLa nuclear extracts); test: In vitro assay for inhibition of histone deacetylase (HDAC Fluorescent Activity Assay, Fluor de Lys); format: biochemical; set-up: key: pIC50 = negative log of IC50; settings: HeLa nuclear extracts 60 μg/ml, 75 μM Fluor de Lys substrate, pH 7.4, 30 min
# From the text: The in vitro assay for inhibition of histone deacetylase (see example C.1) measures the inhibition of HDAC enzymatic activity obtained with the compounds of formula (I).
# The HDAC Fluorescent Activity Assay/Drug Discovery Kit of Biomol (cat. No: AK-500-0001) was used. The HDAC Fluorescent Activity Assay is based on the Fluor de Lys (Fluorogenic Histone deAcetylase Lysyl) substrate and developer combination. The Fluor de Lys substrate, comprises an acetylated lysine side chain. Deacetylation of the substrate sensitizes the substrate so that, in the second step, treatment with the Fluor de Lys developer produces a fluorophore.
# HeLa nuclear extracts (supplier: Biomol) were incubated at 60 μg/ml with 75 μM of substrate. The Fluor de Lys substrate was added in a buffer containing 25 mM Tris, 137 mM NaCl, 2.7 mM KCl and 1 mM MgCl2.6H2O at pH 7.4. After 30 min, 1 volume of the developer was added. The fluorophore was excited with 355 nm light and the emitted light (450 nm) was be detected on a fluorometric plate reader.
# For each experiment, controls (containing HeLa nuclear extract and buffer), a blank incubation (containing buffer but no HeLa nuclear extract) and samples (containing compound dissolved in DMSO and further diluted in buffer and HeLa nuclear extract) were run in parallel. In first instance, compounds were tested at a concentration of 10^−5M. […] All sample were tested 4 times. In each test the blank value was subtracted from both the control and the sample values. The control sample represented 100% of substrate deactylation. For each sample the fluorescence was expressed as a percentage of the mean value of the controls. When appropriate IC50-values (concentration of the drug, needed to reduce the amount of metabolites to 50% of the control) were computed using probit analysis for graded data. Herein the effects of test compounds are expressed as pIC50 (the negative log value of the IC50-value) (see Table F-2).
# [2] = Kinetic solubility in aqueous media (nephelometry); format: physicochemical; settings: aqueous buffer, kinetic from dmso stock; phosphate citrate buffer pH 7.4, dilution of 5 mM DMSO stock, turbidity by nephelometer; read-out: Solubility C.2. score
# Experimental: The solubility of a compound measures the ability of a compound to stay in solution. DMSO-stock solutions are diluted with a single aqueous buffer solvent in 3 consecutive steps. For every dilution turbidity is measured with a nephelometer. (see example C.2).
# In the first dilution step, 10 μl of a concentrated stock-solution of the active compound, solubilized in DMSO (5 mM), was added to 100 μl phosphate citrate buffer pH 7.4 and mixed. In the second dilution step, an aliquot (20 μl) of the first dilution step was further dispensed in 100 μl phosphate citrate buffer pH 7.4 and mixed. Finally, in the third dilution step, a sample (20 μl) of the second dilution step was further diluted in 100 μl phosphate citrate buffer pH 7.4 and mixed. All dilutions were performed in 96-well plates. Immediately after the last dilution step the turbidity of the three consecutive dilution steps were measured with a nephelometer. Dilution was done in triplicate for each compound to exclude occasional errors. Based on the turbidity measurements a ranking is performed into 3 classes. Compounds with high solubility obtained a score of 3 and for this compounds the first dilution is clear. Compounds with medium solubility obtained a score of 2. For these compounds the first dilution is unclear and the second dilution is clear. […]
Compound,Enzymatic activity pIC50 C.1. [1],solubility [2] [µM]
O=C(NO)c1cnc(N2CCN(c3c(Nc4cccc(-c5ccccc5)c4)c(=O)c3=O)CC2)nc1 [Compound 1],7.7,–
CCCCCNc1c(N2CCN(c3ncc(C(=O)NO)cn3)CC2)c(=O)c1=O [Compound 3],7.6,–
O=C(NO)c1cnc(N2CCN(c3c(NC4CCCc5ccccc54)c(=O)c3=O)CC2)nc1 (stereo not drawn) [Compound 4],7.2,–
O=C(NO)c1cnc(N2CCN(c3c(NCCOc4cccc(Cl)c4)c(=O)c3=O)CC2)nc1 [Compound 5],7.4,–
CCN(CC)CCCNc1c(N2CCN(c3ncc(C(=O)NO)cn3)CC2)c(=O)c1=O [Compound 6],7.2,–
O=C(NO)c1cnc(N2CCN(c3c(NCc4ccco4)c(=O)c3=O)CC2)nc1 [Compound 7],7.2,> 454
O=C(NO)c1cnc(N2CCN(c3c(NCC4(c5ccc(Cl)cc5)CC4)c(=O)c3=O)CC2)nc1 [Compound 8],7.2,–
O=C(NO)c1cnc(N2CCN(c3c(NCc4cccc(C(F)(F)F)c4)c(=O)c3=O)CC2)nc1 [Compound 12],7.2,> 454
COc1cc(CNc2c(N3CCN(c4ncc(C(=O)NO)cn4)CC3)c(=O)c2=O)cc(OC)c1OC [Compound 13],7.4,–
O=C(NO)c1cnc(N2CCN(c3c(NCCCN4CCCC4=O)c(=O)c3=O)CC2)nc1 [Compound 15],6.8,–

# The remaining lines, values ahead:
Enzymatic activity pIC50 C.1. [1],solubility [2] [µM],Compound
6.9,–,O=C(NO)c1cnc(N2CCN(c3c(NCC4CCN(Cc5ccccc5)C4)c(=O)c3=O)CC2)nc1 (stereo not drawn) [Compound 2]
7.0,–,O=C(NO)c1cnc(N2CCN(c3c(NCc4cccnc4)c(=O)c3=O)CC2)nc1 [Compound 9]
7.1,–,O=C(NO)c1cnc(N2CCN(c3c(NCCc4ccccc4)c(=O)c3=O)CC2)nc1 [Compound 10]
7.0,–,O=C(NO)c1cnc(N2CCN(c3c(NCCc4ccccn4)c(=O)c3=O)CC2)nc1 [Compound 11]
6.9,–,O=C(NO)c1cnc(N2CCN(c3c(NCCNc4ccccc4)c(=O)c3=O)CC2)nc1 [Compound 14]
7.3,–,O=C(NO)c1cnc(N2CCN(c3c(NCCOc4ccccc4)c(=O)c3=O)CC2)nc1 [Compound 16]

# From patent publication US7884105B2, “Squaric acid derivatives as inhibitors of histone deacetylase” (Janssen Pharmaceutica, N.V., priority 2005, dated 2011)
